From US7652000B2, “Boron-containing compounds and methods of use” (Anacor Pharmaceuticals, Inc., priority 2004, dated 2010) come the findings set out here.

Molecules are shown by their SMILES. Converted amounts (≈) assume the structure as drawn.

Test [1] deals with IL-8. Kind of test: Inhibition of IL-8 pro-inflammatory cytokine release. The format is cell-based. An excerpt:
The selective inhibition of the release of pro-inflammatory cytokines is shown in Table 2 with representative compounds 10, 11, and 30-35.

Test [2] has as its system TNF-α. Kind of test: Inhibition of TNF-α secretion from human PBMC stimulated with LPS. Conditions: 1 μg/ml LPS, 24 h; for IC50: read-out: IC50 TNF-α release. The class given is cell-based. How it is done: (§1) 5.2 Inhibition of IL-β, IL-6, or TNF-α Secretion from Human Peripheral Blood […] (PBMC) Stimulated with LPS PBMC (5×10^5 cells) suspended in RPMI 1640 culture medium supplemented with 1% penicillin and 1% streptomycin are pre-incubated for 30 min. at 37° C. with the test compound, reference compound, or culture medium (control). Thereafter, 1 μg/ml LPS is added to induce the cytokine secretion and the mixture is incubated for 24 h at 37° C. For basal control measurements, LPS is omitted from the incubation medium. Following incubation, the samples are centrifuged at 250×g for 5 min. at 4° C. and the supernatants are collected. The amount of secreted IL-1β, 1L-6, or TNF-α present in the supernatant is quantified using an EIA detection kit (R&D systems). The photometric measurements are made with a microplate reader (Ultra, Tecan). The results are expressed as a percent inhibition of the control secretion induced by LPS. The standard inhibitory reference compounds for IL-1β, IL-6 or TNF-α are cycloheximide and dexamethasone, respectively, which are tested in each experiment at several concentrations to obtain an inhibition curve from which their IC50 values are calculated (Schindler, R., et al., (1990). “Correlations and interactions in the production of interleukin-6 (IL-6), IL-1, and tumor necrosis factor (TNF) in human blood mononuclear cells: IL-6 suppresses IL-1 and TNF”, Blood, 75:40. These procedures were used to determine the inhibition (and selectivity) of cytokine release by representative compounds […] shown in Table 2. Thus, the invention provides antibiotics that are generically called borinic acid complexes, most preferably derived from disubstituted borinic acids.

For test [3], the system named is IL-6. Nature of the test: Inhibition of IL-6 secretion from human PBMC stimulated with LPS. The format is cell-based. The conditions noted are these: 1 μg/ml LPS, 24 h; for IC50: read-out: IC50 IL-6 release. The method, then:
as §1

The test system of test [4] is S. aureus ATCC 29213. Nature of the test: MIC determination (NCCLS broth microdilution), S. aureus. Conditions: lowest concentration with >=80% inhibition, 24 h at 34° C. The format is cell-based. The method, then: (§2) The compounds of this invention are evaluated for their antibacterial activity as per the guidelines and procedures prescribed by the National Committee for Clinical Laboratory Standards (NCCLS) (cf., NCCLS Document M7-A3, 1993-Antimicrobial Susceptibility Testing). 5.1.1 Protocol for Determining Minimum Inhibitory Concentration (MIC) A useful protocol for MIC determination is as follows: • 1. Approximately 2.5 mg of the compounds to be tested was weighed into cryovials. • 2. 5 mg/ml stock solutions were made by adding DMSO to the samples accordingly. • 3. 256 μg/ml working solutions were made by using the 5 mg/ml stock solutions and adding sterile distilled water accordingly. • 4. A Beckman 2000 Automated Workstation was programmed to load 96-well plates with broth and compounds as follows: • 100 μl of the appropriate broth was added to columns 1-11. • 200 μl of the appropriate broth was added to column 12. • 100 μl of compounds at the 256 μg/ml working solution were added to column 1 (one compound per row). • Two-fold serial dilutions were done from columns 1-10. • Column 11 served as the growth control. • 5. The ten-organism panel was plated from stock vials stored at −80° C. and incubated for 24 hours at 34° C. The organisms were then sub-cultured and incubated for 24 hours at 34° C. • The inoculums were first prepared in sterile distilled water with a target of 0.09-0.11 absorbance at 620 nm wavelength. • A 1/100 dilution was made into the appropriate broth. • 100 μl of broth with organism was added to columns 1-11. • Column 12 served as the blank control. • 6. The completed 96 well plates were incubated for 24 hours at 34° C. The 96-well plates were then read using a Beckman Automated Plate Reader at 650 nm wavelength. The MIC was determined through calculations involving the growth control (column 11) and blank control (column 12). 5.1.2 MIC Calculation The absorbance readings from the Biomek Automated Plate Reader are used to determine the percent inhibition for each test well. The formula used is as follows: [formula] • ABSTest: Absorbance of the test well. • ABSblank: Absorbance of the blank well in the same row as the test well (column 12). • ABSgrowth: Mean absorbance of the growth control wells (column 11). […] These procedures were used to obtain the representative microbiological data for the compounds 10 to 19 shown in Table 1 as MIC (Minimum Inhibitory Concentration) with the values expressed as micrograms per milliliter (mcg/ml).

For test [5], the system named is P. acnes ATCC 6919. Kind of test: MIC determination (NCCLS broth microdilution), P. acnes. The format is cell-based, Propionibacterium acnes. The conditions noted are these: lowest concentration with >=80% inhibition, 24 h at 34° C. The method, then: as §2
For orientation: In broth dilution the organism is exposed to a series of concentrations in liquid medium.

The subject of test [6] is S. epidermidis ATCC 12228. Nature of the test: MIC determination (NCCLS broth microdilution), S. epidermidis. The conditions noted are these: lowest concentration with >=80% inhibition, 24 h at 34° C. The class given is cell-based. How it is done: as §2
The subject of test [7] is IL-1β. Kind of test: Inhibition of IL-1β secretion from human PBMC stimulated with LPS. Conditions: 1 μg/ml LPS, 24 h; for IC50: read-out: IC50 IL-1β release. The class given is cell-based. How it is done:
as §1

For orientation: IC50 means the concentration that gives 50% inhibition. With `Cc1cc(Cl)ccc1B(OC(=O)c1ncccc1O)c1ccc(Cl)cc1C` [Compound 11, Bis(2-methyl-4-chlorophenyl)borinic acid 3-Hydroxypicolinate ester], the “Inhibition (%) at 25 μM IL-8 release” value in test [1] is listed as “(122%)”. In test [2], the IC50 was 14.9 µM and the “Inhibition (%) at 25 μM TNF-α release” value is on record as “(101%)”. In test [3], the IC50 came out at 2.8 µM and the “Inhibition (%) at 25 μM IL-6 release” value is “(102%)”. Further, the “MIC S. aureus ATCC 29213” value in test [4] was determined as 1 µg/mL (≈ 2.5 µM). The “MIC P. acnes ATCC 6919” value in test [5] is 0.3 µg/mL (≈ 0.75 µM). The “MIC S. epidermidis ATCC 12228” value in test [6] came out at 0.25 µg/mL (≈ 0.625 µM). Further, in test [7], the IC50 came to 15 µM and the “Inhibition (%) at 25 μM IL-1β release” value is recorded as “(103%)”.

The MIC is the smallest concentration in the dilution series that meets the test's criterion for growth inhibition. With `CC[C@H]1OC(=O)[C@H](C)[C@@H](O[C@H]2C[C@@](C)(OC)[C@@H](O)[C@H](C)O2)[C@H](C)[C@@H](O[C@@H]2O[C@H](C)C[C@H](N(C)C)[C@H]2O)[C@](C)(O)C[C@@H](C)C(=O)[C@H](C)[C@@H](O)[C@]1(C)O` [erythromycin, reference compound], the MIC in test [4] (Staphylococcus aureus, ATCC29213) is 0.5 µg/mL (≈ 0.681 µM); in test [5] (Cutibacterium acnes, ATCC6919), 1 to 2 µg/mL (≈ 1.36 to 2.73 µM); in test [6] (Staphylococcus epidermidis, ATCC12228) it was 0.5 µg/mL (≈ 0.681 µM).

For `O=C(OB(c1ccc(Cl)cc1F)c1c(Cl)ccc(Br)c1F)c1ncccc1O` [Compound 34, (3-Bromo-6-chloro-2-fluorophenyl)(4-chloro-2-fluorophenyl)borinic acid 3-hydroxypicolinate ester], in test [2], the “Inhibition (%) at 25 μM TNF-α release” value turned out to be 101%. Further, the “Inhibition (%) at 25 μM IL-6 release” value in test [3] is 108%. The “Inhibition (%) at 25 μM IL-1β release” value in test [7] amounted to 100%.

Turning to `Cc1ccc(B(OC(=O)c2ncccc2C(=O)O)c2ccc(C)cc2Cl)c(Cl)c1` [Compound 14, Bis(2-Chloro-4-methylphenyl)borinic acid 3-carboxypicolinate ester], in test [4], the “MIC S. aureus ATCC 29213” value turned out to be 0.125 µg/mL (≈ 0.292 µM). For the same molecule, in test [5], the “MIC P. acnes ATCC 6919” value was found to be 3 µg/mL (≈ 7.01 µM). Besides, the “MIC S. epidermidis ATCC 12228” value in test [6] stood at 4 µg/mL (≈ 9.34 µM).

On to `Cc1ccc(B(OC(=O)c2ccc(C(=O)O)cn2)c2ccc(C)c(Cl)c2)cc1Cl` [Compound 31, Bis(3-chloro-4-methylphenyl)borinic acid 5-Carboxypicolinate ester], for which, in test [2], the “Inhibition (%) at 25 μM TNF-α release” value amounted to 101%. Besides, in test [7], the “Inhibition (%) at 25 μM IL-1β release” value was found to be 80%.

Regarding `CCOC(=O)c1cccnc1C(=O)OB(c1ccc(C)c(Cl)c1)c1ccc(C)c(Cl)c1` [Compound 30, Bis(3-chloro-4-methylphenyl)borinic Acid 3-(Ethyloxycarbonyl)picolinate Ester], in test [2], the “Inhibition (%) at 25 μM TNF-α release” value was found to be 101%. Besides, the “Inhibition (%) at 25 μM IL-1β release” value in test [7] is reported as 76%.

For the molecule `Cc1ccc(B(OC(=O)c2ncccc2O)c2ccc(C)c(Cl)c2)cc1Cl` [Compound 10, Bis(3-chloro-4-methylphenyl)borinic acid 3-hydroxypicolinate ester], the “Inhibition (%) at 25 μM IL-8 release” value in test [1] is “(122%)”. Besides, in test [2], the IC50 amounted to 8.6 µM and the “Inhibition (%) at 25 μM TNF-α release” value was “(100%)”. For the same molecule, in test [3], the IC50 came out at 3.6 µM and the “Inhibition (%) at 25 μM IL-6 release” value is recorded as “(80%)”. Further, the “MIC S. aureus ATCC 29213” value in test [4] turned out to be 2 µg/mL (≈ 5 µM). In addition, the “MIC P. acnes ATCC 6919” value in test [5] was 0.3 µg/mL (≈ 0.75 µM). In test [6], the “MIC S. epidermidis ATCC 12228” value is 1 µg/mL (≈ 2.5 µM). In test [7], the half-inhibitory concentration (IC50) was 10.8 µM and the “Inhibition (%) at 25 μM IL-1β release” value was “(99%)”.

Regarding `O=C(OB(c1ccc(Cl)cc1F)c1c(Cl)ccc(Br)c1F)c1ncccc1O` [Compound 13, (3-Bromo-6-chloro-2-fluorophenyl)(2-fluoro-4-chlorophenyl)borinic acid 3-Hydroxypicolinate ester], the “MIC S. aureus ATCC 29213” value in test [4] turned out to be 2 µg/mL (≈ 4.11 µM). The “MIC P. acnes ATCC 6919” value in test [5] was found to be 3 µg/mL (≈ 6.16 µM). In addition, the “MIC S. epidermidis ATCC 12228” value in test [6] is 1 µg/mL (≈ 2.05 µM).

Turning to `COc1ccc(Cl)cc1B(OC(=O)c1ncccc1O)c1cccc(Cl)c1` [Compound 15, (2-Methoxy-5-chlorophenyl)(3-chlorophenyl)borinic acid 3-Hydroxypicolinate ester], in test [4], the “MIC S. aureus ATCC 29213” value was determined as 4 µg/mL (≈ 9.95 µM). Further, the “MIC P. acnes ATCC 6919” value in test [5] stood at 3 µg/mL (≈ 7.46 µM). In test [6], the “MIC S. epidermidis ATCC 12228” value is 4 µg/mL (≈ 9.95 µM).

For `Cc1ccc(B(OC(=O)c2ncccc2OCCN2CCOCC2)c2ccc(C)c(Cl)c2)cc1Cl` [Compound 32, Bis(3-chloro-4-methylphenyl)borinic acid 3-[(2-Morpholinoethyl)oxy]picolinate ester], the “Inhibition (%) at 25 μM TNF-α release” value in test [2] came to 101%. Also, the “Inhibition (%) at 25 μM IL-1β release” value in test [7] stood at 34%.

Regarding `CC(=O)Nc1ccc(O)c(C(=O)OB(c2cccc(Cl)c2)c2cccc(Cl)c2)n1` [Compound 16, Bis(3-chlorophenyl)borinic acid 6-Acetylamino-3-hydroxypicolinate ester], the “MIC S. aureus ATCC 29213” value in test [4] stood at 0.5 µg/mL (≈ 1.17 µM). In addition, the “MIC P. acnes ATCC 6919” value in test [5] turned out to be 10 µg/mL (≈ 23.3 µM). Moreover, in test [6], the “MIC S. epidermidis ATCC 12228” value amounted to 8 µg/mL (≈ 18.6 µM).

With `Cc1ccc(B(OC(=O)c2ncccc2O)c2ccc(O)cc2)cc1Cl` [Compound 33, (3-chloro-4-methylphenyl)(4-hydroxyphenyl)borinic acid 3-hydroxypicolinate ester], the “Inhibition (%) at 25 μM TNF-α release” value in test [2] came out at 48%. For the same molecule, the “Inhibition (%) at 25 μM IL-1β release” value in test [7] was found to be 60%.

For `Cc1ccc(B(CCc2ccccc2)OC(=O)c2ncccc2O)cc1Cl` [Compound 12, (3-chloro-4-methylphenyl)(phenethyl)borinic acid 3-Hydroxypicolinate ester], the “MIC S. aureus ATCC 29213” value in test [4] is 0.5 µg/mL (≈ 1.32 µM). Also, in test [5], the “MIC P. acnes ATCC 6919” value stood at 3 µg/mL (≈ 7.9 µM). Also, the “MIC S. epidermidis ATCC 12228” value in test [6] was 1 µg/mL (≈ 2.63 µM).
